Data as given in patent US20190365699A1, “Treatment of Kidney Tumors by Intratumoral Injection of Taxane Particles” (CRITITECH, INC., priority 2018, published 2019).
Read-outs that look alike come from different tables or passages of the source.

Legend:
[1] = BET specific surface area analysis; assay type: physicochemical
Protocol: As used herein, the “specific surface area” (SSA) is the total surface area of the taxane particle per unit of taxane mass as measured by the Brunauer-Emmett-Teller (“BET”) isotherm by the following method: a known mass between 200 and 300 mg of the analyte is added to a 30 mL sample tube. […] The automated test is then carried out using the BETWIN® software package and the surface area of each sample is subsequently calculated. As will be understood by those of skill in the art, the “taxane particles” can include both agglomerated taxane particles and non-agglomerated taxane particles; since the SSA is determined on a per gram basis it takes into account both the larger agglomerated and smaller non-agglomerated taxane particles in the composition. The agglomerated taxane particles are defined herein as individual taxane particles that are formed by the agglomeration of smaller particles which fuse together forming the larger individual taxane particles, all of which occurs during the processing of the taxane particles. […]
A known mass between 200 and 300 mg of the analyte was added to a 30 mL sample tube. […] The automated test was then carried out using the BETWIN® software package and the surface area of each sample was subsequently calculated.

[2] = Bulk density (not tapped); assay type: physicochemical; settings: room temperature
Protocol: As used herein, the “specific surface area” (SSA) is the total surface area of the taxane particle per unit of taxane mass as measured by the Brunauer-Emmett-Teller (“BET”) isotherm by the following method: a known mass between 200 and 300 mg of the analyte is added to a 30 mL sample tube. […] The automated test is then carried out using the BETWIN® software package and the surface area of each sample is subsequently calculated. As will be understood by those of skill in the art, the “taxane particles” can include both agglomerated taxane particles and non-agglomerated taxane particles; since the SSA is determined on a per gram basis it takes into account both the larger agglomerated and smaller non-agglomerated taxane particles in the composition. The agglomerated taxane particles are defined herein as individual taxane particles that are formed by the agglomeration of smaller particles which fuse together forming the larger individual taxane particles, all of which occurs during the processing of the taxane particles. The BET specific surface area test procedure is a compendial method included in both the United States Pharmaceopeia and the European Pharmaceopeia. […]
The mass of the drug was measured to a nearest 0.1 mg, the volume was determined to the nearest 0.1 mL and the density calculated.

[3] = Paclitaxel dissolution study, USP Apparatus II; assay type: physicochemical
Protocol: Beads were transferred to a stainless steel mesh container and placed in the dissolution bath containing methanol/water 50/50 (v/v) media at 37° C., pH 7, and a USP Apparatus II (Paddle), operating at 75 rpm. […] Absorbance values of the samples were compared to those of standard solutions prepared in dissolution media to determine the amount of material dissolved. […] Absorbance values of the samples were compared to those of standard solutions prepared in dissolution media to determine the amount of material dissolved.
Beads were transferred to a stainless steel mesh container and placed in the dissolution bath containing methanol/water 50/50 (v/v) media at 37° C., pH 7, and a USP Apparatus II (Paddle), operating at 75 rpm. […] Absorbance values of the samples were compared to those of standard solutions prepared in dissolution media to determine the amount of material dissolved.

[4] = Particle size analysis (light obscuration and laser diffraction); assay type: physicochemical
Excerpt: The particle size of the taxane particles can be determined by a particle size analyzer instrument and the measurement is expressed as the mean diameter based on a number distribution (number). A suitable particle size analyzer instrument is one which employs the analytical technique of light obscuration, also referred to as photozone or single particle optical sensing (SPOS). A suitable light obscuration particle size analyzer instrument is the ACCUSIZER, such as the ACCUSIZER 780 SIS, available from Particle Sizing Systems, Port Richey, Fla. Another suitable particle size analyzer instrument is one which employs laser diffraction, such as the Shimadzu SALD-7101.
Particle size was analyzed by both light obscuration and laser diffraction methods.
The vials were vortexed for approximately 10 seconds and then sonicated in a sonic bath approximately 1 minute.
The vial was vortexed for approximately 10 seconds and then sonicated in a sonic bath for approximately 2 minutes. This suspension was used for laser diffraction analysis. Unused suspension was poured into a 125 mL particle-free plastic bottle, which was then filled to approximately 100 mL with filtered dispersant. The suspension was vortex for approximately 10 seconds and then sonicated in the sonic bath for approximately 2 minutes. This diluted suspension was used for light obscuration analysis. […]

[5] = Docetaxel dissolution study, USP Apparatus II; assay type: physicochemical
Protocol: The procedures used to determine the dissolution rates are as follows. […] Beads were transferred to a stainless steel mesh container and placed in the dissolution bath containing methanol/water 50/50 (v/v) media at 37° C., pH 7, and a USP Apparatus II (Paddle), operating at 75 rpm. At 10, 20, 30, 60, and 90 minutes, a 5 mL aliquot was removed, filtered through a 0.22 μm filter and analyzed on a UV/VIS spectrophotometer at 227 nm. Absorbance values of the samples were compared to those of standard solutions prepared in dissolution media to determine the amount of material dissolved. […] At 5, 15, 30, 60, 120 and 225 minutes, a 5 mL aliquot was removed, filtered through a 0.22 μm filter, and analyzed on a UV/VIS spectrophotometer at 232 nm. Absorbance values of the samples were compared to those of standard solutions prepared in dissolution media to determine the amount of material dissolved.
At 5, 15, 30, 60, 120 and 225 minutes, a 5 mL aliquot was removed, filtered through a 0.22 μm filter, and analyzed on a UV/VIS spectrophotometer at 232 nm. Absorbance values of the samples were compared to those of standard solutions prepared in dissolution media to determine the amount of material dissolved.

[6] = tested on: human renal cell adenocarcinoma (786-O cell line); assay: Drug efficacy in rat xenograft model, tumor volume; assay type: in vivo; settings: IV, QW × 3, 2.5-5 mg/kg
[7] = tested on: human renal cell adenocarcinoma (786-O cell line); assay: H&E and immunohistochemical evaluation of xenograft tumors; assay type: in vivo, Rat (Rattus norvegicus); settings: for morphologic and immunohistochemical appearance of tumor: IV, 3 weekly cycles, versus vehicle/control
Excerpt: Tissue Collection: Primary Tumor (Inoculation site)—A final tumor measurement was taken prior to excision. Tumors were weighed after excision. Approximately ½ of each tumor (based on visual assessment) was flash frozen in 2-methylbutane on dry ice, the tumor piece was weighed when possible before it is flash frozen. The remaining was fixed in 10% neutral buffered formalin. Tumors were also collected from animals not reaching enrollment volume. Secondary Tumors—Any organ with visible tumors were collected and fixed in 10% neutral buffered formalin. Formalin fixed tissues were stored at room temperature. Frozen tissues were stored at −80° C. All tissue was stored for up to 3 months. Pictures of all tumors; primary and secondary if present, were taken.
Microscopic Examination: Tissues fixed with 10% NBF were embedded in paraffin. Each tumor was cut into 2-3 pieces and embedded and sectioned together.

[8] = Body weight and clinical observations in xenograft study; settings: IV, group 6, initial dosage 5 mg/kg
Protocol: Individual Body Weights: Three times weekly (M, W, F) starting at the time of inoculation.
Macroscopic Examination: A necropsy was conducted on all animals dying spontaneously, euthanized in extremis or at the scheduled necropsy after 50 days post initiation of treatment. Animals euthanized in extremis or at study termination were euthanized by CO2 inhalation. Necropsy included examination of the external surface, all orifices and the thoracic, abdominal and pelvic cavities, including viscera. At the time of necropsy, a final body weight and body condition score was collected.

Row | Surface area (BET, SSA) [1] [m^2/g] | Surface area (BET, SSA) ([1]; listed as raw paclitaxel) [m^2/g] | Bulk Density (not tapped) [2] [g/mL] | Paclitaxel Dissolution time course ([3]; 0 minutes) [%] | Dissolution (30 min) ([3]; methanol/water 50/50 (v/v), 37° C., pH 7, 75 rpm, 30 min) [%] | Compound | Number Mean [4] [um] | Volume Mean [4] [um] | Docetaxel Dissolution time course ([5]; 0 minutes) [%] | Docetaxel Dissolution time course ([5]; 5 minutes) [%] | Docetaxel Dissolution time course ([5]; 15 minutes) [%] | Dissolution (30 min) ([5]; methanol/water 15/85 (v/v), 37° C., pH 7, 75 rpm, 30 min) [%] | tumor growth [6] | animals with Mild lymphohistiocytic infiltrate density ([7]; H/E and CD11b, IV docetaxel 3 cycles, 2 animals) | animals with <5% of tissue showing necrosis ([7]; IV docetaxel 3 cycles, 2 animals) | animals with viable carcinoma >10 mm ([7]; IV docetaxel 3 cycles, 2 female rats) | morphologic and immunohistochemical appearance of tumor [7] | morphologic and immunohistochemical appearance of tumor ([7]; listed as Docetaxel) | toxicity [8]
1 | 10.4 | 7.25 | 0.26 | 0.0 | 18 | CC(=O)O[C@H]1C(=O)[C@@]2(C)[C@H]([C@H](OC(=O)c3ccccc3)[C@]3(O)C[C@H](OC(=O)[C@H](O)[C@@H](NC(=O)c4ccccc4)c4ccccc4)C(C)=C1C3(C)C)[C@]1(OC(C)=O)CO[C@@H]1C[C@@H]2O [Paclitaxel Raw Material, paclitaxel] |  |  |  |  |  |  |  |  |  |  |  |  | 
2 |  |  |  |  |  | CC(=O)O[C@@]12CO[C@@H]1C[C@H](O)[C@@]1(C)C(=O)[C@H](O)C3=C(C)[C@@H](OC(=O)[C@H](O)[C@@H](NC(=O)OC(C)(C)C)c4ccccc4)C[C@@](O)([C@@H](OC(=O)c4ccccc4)[C@H]21)C3(C)C [docetaxel] | 1.58 | 5.05 | 0.0 | 3.2 | 6.9 | 11 | partial tumor growth inhibition compared to vehicle control | 2 | 2 | 2 | identical morphologic and immunohistochemical appearance to that seen in the control and IT vehicle groups | no difference | observed toxicity on day 7
